Where two headings read alike, the source gives them in different places.
How the values were obtained:
[1] = test system: ciMc4r; details: ref [51]; cited from earlier work
Text: (§1) Numerous constitutively active mutants have been reported in several GPCRs, resulting in various human diseases, and inverse agonism will be vital for correcting the diseases caused by activating mutations in GPCRs. The constitutive activity of teleost Mc4r may have important physiological functions.

[2] = test system: saMc4r; details: ref [51]; cited from earlier work
Text: as §1

[3] = molecular target: omMc4rb1; test: Ligand-binding assay (displacement of 125I-NDP-MSH), omMc4rb1; design: species or system rainbow trout (Oncorhynchus mykiss); details: displacement of 125I-NDP-MSH, transiently transfected HEK293T cells, 48 h after transfection, mean ± SEM of at least three independent experiments
Protocol: (§2) Human Embryonic Kidney (HEK) 293T cells, provided by American Type Culture Collection (Manassas, VA, USA), were cultured as described previously. Cells were plated into 24-well or 6-well plates pre-coated with 0.1% gelatin and transfected with plasmids by the calcium phosphate precipitation method.
(§3) A binding assay was conducted as described previously. […].
(§4) Binding assays were used to investigate the binding properties of omMc4rs. […].  Figure 6 Ligand-binding properties of omMc4rs. […]. Data are expressed as % of hMC4R binding ± range from duplicate measurements within one experiment. The curves are representative of at least three independent experiments.

[4] = test system: omMc4ra2; test: ERK1/2 phosphorylation assay, omMc4ra2; type: cell-based, rainbow trout (Oncorhynchus mykiss); details: 1 μM α-MSH, 10 nM AgRP, 1 μM MCL0020, 1 μM Ipsen 5i or 1 μM ML00253764, 5 min, HEK293T, Western blot, at least three independent experiments
Protocol: as §2
(§5) HEK293T cells were transfected with omMC4Rs. Twenty-four hours after transfection, cells were washed twice and starved in media without serum for 24 h. […] Rabbit anti-pERK1/2 antibody (Catalog #4370, Cell Signaling, Beverly, MA, USA) and mouse anti-β-tubulin antibody (Developmental Studies Hybridoma Bank, University of Iowa, Iowa City, IA, USA) were used in this study. The bound antibodies were quantified using ImageJ 1.44 software (National Institute of Health, Bethesda, MD, USA).
(§6) Figure 9 ERK1/2 signaling properties of trout Mc4rs. (A) Immunoblots of pERK1/2 in cells expressing omMc4ra1, omMc4ra2, omMc4rb1, or omMc4rb2. HEK293T cells were transiently transfected with omMc4ra1, omMc4ra2, omMc4rb1, omMc4rb2, or empty vector plasmids and were starved overnight 24 h after transfection. […] Western blots were performed as described in Materials and Methods. (B) Densitometry results of basal pERK1/2 levels of omMc4ra1, omMc4ra2, omMc4rb1, and omMc4rb2. (C) Densitometry results of pERK1/2 level of omMc4ra1. (D) Densitometry results of pERK1/2 level of omMc4ra2. […]

[5] = molecular target: T1, hMC4R (Homo sapiens, UniProt P32245); test: Ligand-binding assay (displacement of 125I-NDP-MSH), hMC4R
T1 construct: expressed in transfected cells; host or cells: HEK293T
Protocol: (§7) Cells were plated into 24-well or 6-well plates pre-coated with 0.1% gelatin and transfected with plasmids by the calcium phosphate precipitation method.
A binding assay was conducted as described previously.
Binding assays were used to investigate the binding properties of omMc4rs. […] Data are expressed as % of hMC4R binding ± range from duplicate measurements within one experiment. The curves are representative of at least three independent experiments.

[6] = test system: omMc4rb1; test: ERK1/2 phosphorylation assay, omMc4rb1; type: cell-based, rainbow trout (Oncorhynchus mykiss)
Protocol: as §2, §5
Figure 9 ERK1/2 signaling properties of trout Mc4rs. (A) Immunoblots of pERK1/2 in cells expressing omMc4ra1, omMc4ra2, omMc4rb1, or omMc4rb2. HEK293T cells were transiently transfected with omMc4ra1, omMc4ra2, omMc4rb1, omMc4rb2, or empty vector plasmids and were starved overnight 24 h after transfection. […] Western blots were performed as described in Materials and Methods. (B) Densitometry results of basal pERK1/2 levels of omMc4ra1, omMc4ra2, omMc4rb1, and omMc4rb2. (C) Densitometry results of pERK1/2 level of omMc4ra1. (D) Densitometry results of pERK1/2 level of omMc4ra2. (E) Densitometry results of pERK1/2 level of omMc4rb1. (F) Densitometry results of pERK1/2 level of omMc4rb2.

[7] = test system: omMc4ra1; test: Ligand-binding assay (displacement of 125I-NDP-MSH), omMc4ra1; design: species or system rainbow trout (Oncorhynchus mykiss); details: AgRP 10^-12 to 10^-7 M, MCL0020 and Ipsen 5i 10^-11 to 10^-6 M, ML00253764 10^-10 to 10^-5 M, transfected HEK293T cells
Protocol: as §2, §3, §4

[8] = molecular target: T1, hMC4R; details: ref [51]; cited from earlier work
[9] = test system: omMc4rb2; test: ERK1/2 phosphorylation assay, omMc4rb2; type: cell-based, rainbow trout (Oncorhynchus mykiss); details: 1 μM α-MSH, 10 nM AgRP, 1 μM MCL0020, 1 μM Ipsen 5i or 1 μM ML00253764, 5 min, HEK293T, Western blot, at least three independent experiments
Protocol: as §2, §5, §6

[10] = test system: omMc4rb2; test: Ligand-binding assay (displacement of 125I-NDP-MSH), omMc4rb2; design: species or system rainbow trout (Oncorhynchus mykiss); details: AgRP 10^-12 to 10^-7 M, MCL0020 and Ipsen 5i 10^-11 to 10^-6 M, ML00253764 10^-10 to 10^-5 M, transfected HEK293T cells
Protocol: as §2, §3, §4

[11] = test system: omMc4rb1; test: Effect of antagonists on basal cAMP level, omMc4rb1; type: cell-based, rainbow trout (Oncorhynchus mykiss); details: 10 nM AgRP, 1 μM MCL0020, 1 μM ML00253764 or 1 μM Ipsen 5i, 1 h, HEK293T, RIA, three independent experiments
Protocol: as §7
(§8) Intracellular cAMP levels were determined according to previous protocol.

[12] = test system: omMc4ra1; test: Effect of antagonists on basal cAMP level, omMc4ra1; type: cell-based, rainbow trout (Oncorhynchus mykiss); details: 10 nM AgRP, 1 μM MCL0020, 1 μM ML00253764 or 1 μM Ipsen 5i, 1 h, HEK293T, RIA, three independent experiments
Protocol: as §7, §8

[13] = test system: saMc4r; details: ref [51]; cited from earlier work; remark: listed apart in the source
[14] = test system: ciMc4r; details: ref [51]; cited from earlier work; remark: listed apart in the source
[15] = molecular target: T1, hMC4R; details: cited from earlier work
[16] = test system: omMc4ra2; test: Ligand-binding assay (displacement of 125I-NDP-MSH), omMc4ra2; design: species or system rainbow trout (Oncorhynchus mykiss); details: AgRP 10^-12 to 10^-7 M, MCL0020 and Ipsen 5i 10^-11 to 10^-6 M, ML00253764 10^-10 to 10^-5 M, transfected HEK293T cells
Protocol: as §2, §3, §4

[17] = test system: omMc4ra2; test: Effect of antagonists on basal cAMP level, omMc4ra2; type: cell-based, rainbow trout (Oncorhynchus mykiss); details: 10 nM AgRP, 1 μM MCL0020, 1 μM ML00253764 or 1 μM Ipsen 5i, 1 h, HEK293T, RIA, three independent experiments
Protocol: as §7, §8

[18] = test system: ciMc4r; details: ciMc4r (grass carp); ref [48],[51],[81]; cited from earlier work
Text: (§9) MC4R-mediated ERK1/2 signaling has a crucial role in the modulation of energy homeostasis. Although teleost Mc4rs have much higher basal activities in Gs-cAMP signaling, constitutive activation of ERK1/2 signaling is only observed in topmouth culter Mc4r but not in saMc4r and ciMc4r. […] Our data documented that these three compounds only activated ERK1/2 signaling of omMc4rb1 but not the other three omMc4rs (Figure 9).

[19] = molecular target: T1, hMC4R; details: ref [48],[51],[81]; cited from earlier work
Text: as §9

[20] = test system: saMc4r; details: saMc4r (spotted scat); ref [48],[51],[81]; cited from earlier work
Text: as §9

[21] = test system: omMc4rb2; test: Effect of antagonists on basal cAMP level, omMc4rb2; type: cell-based, rainbow trout (Oncorhynchus mykiss); details: 10 nM AgRP, 1 μM MCL0020, 1 μM ML00253764 or 1 μM Ipsen 5i, 1 h, HEK293T, RIA, three independent experiments
Protocol: as §7, §8

[22] = test system: omMc4ra1; test: ERK1/2 phosphorylation assay, omMc4ra1; type: cell-based, rainbow trout (Oncorhynchus mykiss); details: 1 μM α-MSH, 10 nM AgRP, 1 μM MCL0020, 1 μM Ipsen 5i or 1 μM ML00253764, 5 min, HEK293T, Western blot, at least three independent experiments
Protocol: as §2, §5, §6

T1 sequence (P32245 whole entry): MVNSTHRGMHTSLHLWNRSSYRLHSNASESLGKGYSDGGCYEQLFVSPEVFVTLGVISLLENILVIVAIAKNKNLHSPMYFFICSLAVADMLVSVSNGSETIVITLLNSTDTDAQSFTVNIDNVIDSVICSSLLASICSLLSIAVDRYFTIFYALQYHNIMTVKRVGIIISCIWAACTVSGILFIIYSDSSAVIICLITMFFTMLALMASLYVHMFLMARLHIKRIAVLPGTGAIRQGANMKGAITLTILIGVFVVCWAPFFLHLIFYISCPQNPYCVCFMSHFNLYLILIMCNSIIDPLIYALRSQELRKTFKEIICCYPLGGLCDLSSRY

CC(=O)N[C@H](Cc1ccc2ccccc2c1)C(=O)N[C@@H](CCCNC(=N)N)C(=O)N[C@@H](Cc1ccc2ccccc2c1)C(N)=O [MCL0020, Ac-D-2-Nal-Arg-2-Nal-NH2]
NDP-MSH-induced cAMP generation [1]: antagonizes NDP-MSH-induced cAMP generation
basal cAMP production [1]: decreases the basal cAMP production of ciMc4r
basal and ligand-induced cAMP levels [2]: no effect on basal and ligand-induced cAMP levels
IC50 [3]: 305 ± 66.2 nM
effect on ERK1/2 phosphorylation [4]: no effect
IC50 ([5]; hMC4R, displacement of 125I-NDP-MSH, transiently transfected HEK293T cells, 48 h after transfection, mean ± SEM of at least three independent experiments, read-out: IC50): 62.3 ± 4.82 nM
effect on ERK1/2 phosphorylation ([6]; 1 μM α-MSH, 10 nM AgRP, 1 μM MCL0020, 1 μM Ipsen 5i or 1 μM ML00253764, 5 min, HEK293T, Western blot, at least three independent experiments): significantly increased
biased signaling, cAMP versus ERK1/2 ([6]; concluded from binding, cAMP and pERK1/2 results): biased allosteric modulators for omMc4rb1 with selective activation on ERK1/2 signaling
displacement of 125I-NDP-MSH binding [7]: only displaced ^125I-NDP-MSH binding to hMC4R and omMc4rb1
NDP-MSH displacement [8]: replaces NDP-MSH binding
effect on ERK1/2 phosphorylation [9]: no effect
displacement of 125I-NDP-MSH binding [10]: only displaced ^125I-NDP-MSH binding to hMC4R and omMc4rb1
effect on basal cAMP level [11]: no significant effect
effect on basal cAMP level [12]: no significant effect
NDP-MSH displacement [13]: replaces NDP-MSH binding
NDP-MSH displacement [14]: replaces NDP-MSH binding
basal activity of hMC4R and constitutively active mutant hMC4Rs ([15]; hMC4R and mutants, ref [1],[28],[48],[51]): reduced by inverse agonists
type of ligand at hMC4R ([15]; hMC4R, ref [51],[56],[79]): neutral antagonist of hMC4R
displacement of 125I-NDP-MSH binding [16]: only displaced ^125I-NDP-MSH binding to hMC4R and omMc4rb1
effect on basal cAMP level [17]: no significant effect
biased signaling, Gs-cAMP versus ERK1/2 [18]: preferred activation on ERK1/2 signaling
biased signaling, Gs-cAMP versus ERK1/2 [19]: preferred activation on ERK1/2 signaling
biased signaling, Gs-cAMP versus ERK1/2 [20]: preferred activation on ERK1/2 signaling
effect on basal cAMP level [21]: no significant effect
effect on ERK1/2 phosphorylation [22]: not by ML00253764, Ipsen 5i, or MCL0020

CSCC[C@@H]1NC(=O)[C@H](C)NC(=O)[C@H]([C@@H](C)O)NC(=O)CNC(=O)[C@H](CC(C)C)NC(=O)[C@H](CCCCN)NC(=O)[C@H](CCCNC(=N)N)NC(=O)[C@@H]2CSSC[C@@H]3NC(=O)[C@@H]4CCCN4C(=O)[C@H](C(C)C)NC(=O)[C@H](CCC(N)=O)NC(=O)[C@H](CCC(N)=O)NC(=O)CNC(=O)[C@H](CC(C)C)NC(=O)[C@@H]4CSSC[C@H](NC(=O)[C@H]([C@@H](C)O)NC(=O)[C@H](C)NC(=O)[C@H](CSSC[C@@H](C(=O)N[C@@H](CO)C(=O)N[C@@H](CCCNC(=N)N)C(=O)N[C@H](C(=O)O)[C@@H](C)O)NC(=O)[C@@H]5CCCN5C(=O)[C@H](CC(N)=O)NC1=O)NC(=O)[C@@H]1CCCN1C(=O)[C@H](CC(=O)O)NC(=O)[C@H](CSSC[C@H](NC(=O)[C@H](CCCNC(=N)N)NC(=O)[C@H](CCCNC(=N)N)NC(=O)[C@H](CO)NC(=O)[C@@H](N)CO)C(=O)N[C@@H](C(C)C)C(=O)N[C@@H](CCCNC(=N)N)C(=O)N[C@@H](CC(C)C)C(=O)N[C@@H](Cc1c[nH]cn1)C(=O)N[C@@H](CCC(=O)O)C(=O)N[C@@H](CO)C(=O)N4)NC3=O)C(=O)N[C@@H](Cc1ccc(O)cc1)C(=O)N[C@H]1CSSC[C@H](NC(=O)[C@H](Cc3ccccc3)NC(=O)[C@H](C)NC(=O)[C@H](CC(N)=O)NC(=O)[C@H](Cc3ccccc3)NC(=O)[C@H](Cc3ccccc3)NC(=O)[C@H](CCCNC(=N)N)NC1=O)C(=O)N[C@@H](Cc1ccc(O)cc1)C(=O)N2 [AgRP]
IC50 [5]: 32.5 ± 7.76 nM

Reference: PMC10452266, “Divergent Pharmacology and Biased Signaling of the Four Melanocortin-4 Receptor Isoforms in Rainbow Trout (Oncorhynchus mykiss)” (Biomolecules, 2023)
